# Measurements: BindingDB's records for doi:10.1016/j.bmcl.2005.03.031 (Dartmouth College, 2005)
# Molecular target: Nitric oxide synthase, inducible (Homo sapiens, UniProt P35228)
# Assay: Inhibition of inducible nitric oxide synthase in activated macrophages
# Nitric oxide synthase, inducible, sequence (P35228 whole entry): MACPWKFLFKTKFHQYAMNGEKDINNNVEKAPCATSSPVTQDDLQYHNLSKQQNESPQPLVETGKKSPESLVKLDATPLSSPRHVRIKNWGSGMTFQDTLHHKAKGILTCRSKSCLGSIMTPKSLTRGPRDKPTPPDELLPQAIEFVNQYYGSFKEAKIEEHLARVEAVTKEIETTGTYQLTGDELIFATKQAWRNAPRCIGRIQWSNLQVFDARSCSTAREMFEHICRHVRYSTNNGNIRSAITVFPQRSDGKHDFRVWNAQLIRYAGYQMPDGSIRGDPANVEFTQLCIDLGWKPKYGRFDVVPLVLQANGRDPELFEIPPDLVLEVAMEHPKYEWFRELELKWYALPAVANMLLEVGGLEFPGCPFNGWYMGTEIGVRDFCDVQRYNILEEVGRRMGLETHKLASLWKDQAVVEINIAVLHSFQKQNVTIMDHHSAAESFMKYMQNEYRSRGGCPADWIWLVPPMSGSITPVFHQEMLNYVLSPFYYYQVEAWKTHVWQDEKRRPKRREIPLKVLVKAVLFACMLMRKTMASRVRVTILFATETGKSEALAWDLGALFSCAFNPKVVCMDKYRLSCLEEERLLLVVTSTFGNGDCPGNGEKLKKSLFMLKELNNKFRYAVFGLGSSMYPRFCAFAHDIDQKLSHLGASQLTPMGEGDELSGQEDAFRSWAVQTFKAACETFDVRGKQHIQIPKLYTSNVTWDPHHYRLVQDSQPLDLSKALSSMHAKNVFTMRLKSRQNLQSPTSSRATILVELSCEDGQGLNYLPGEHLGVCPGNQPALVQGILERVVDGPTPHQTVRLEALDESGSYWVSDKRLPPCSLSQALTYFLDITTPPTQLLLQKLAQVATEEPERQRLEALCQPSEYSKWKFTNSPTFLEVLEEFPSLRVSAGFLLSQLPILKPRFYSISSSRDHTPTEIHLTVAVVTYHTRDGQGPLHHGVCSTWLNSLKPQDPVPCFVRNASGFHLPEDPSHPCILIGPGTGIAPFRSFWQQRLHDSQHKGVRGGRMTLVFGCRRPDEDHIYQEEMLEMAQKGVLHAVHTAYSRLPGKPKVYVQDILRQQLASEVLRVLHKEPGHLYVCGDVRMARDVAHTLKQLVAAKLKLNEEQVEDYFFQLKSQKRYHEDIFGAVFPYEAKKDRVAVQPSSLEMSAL
row,IC50,Structure (SMILES)
1,0.04 µM,"CC1(C)CC[C@]2(C(=O)O)CC[C@]3(C)C(=CC(=O)C4[C@@]5(C)C=C(C#N)C(=O)C(C)(C)C5CC[C@]43C)C2C1 (stereo partly drawn) [(4aS,6aS,6bR,12aS)-11-Cyano-2,2,6a,6b,9,9,12a-heptamethyl-10,13-dioxo-1,3,4,5,6,6a,6b,7,8,8a,9,10,12a,12b,13,14b-hexadecahydro-2H-picene-4a-carboxylic acid]"
2,0.6 µM,"CC1(C)CC[C@]2(C(=O)O)CC[C@]3(C)C(=CCC4[C@@]5(C)C=C(C#N)C(=O)C(C)(C)C5CC[C@]43C)C2C1 (stereo partly drawn) [(4aS,6aS,6bR,12aR)-11-Cyano-2,2,6a,6b,9,9,12a-heptamethyl-10-oxo-1,3,4,5,6,6a,6b,7,8,8a,9,10,12a,12b,13,14b-hexadecahydro-2H-picene-4a-carboxylic acid]"
3,37 µM,CC1(C)CC[C@]2(C(=O)O)CC[C@]3(C)C(=CC[C@@H]4[C@@]5(C)CCC(=O)C(C)(C)[C@@H]5CC[C@]43C)[C@@H]2C1 [Oleanonic Acid]
4,5.6 µM,"CC1(C)CC[C@]2(C(=O)O)CC[C@]3(C)C(=CCC4[C@@]5(C)C=CC(=O)C(C)(C)C5CC[C@]43C)C2C1 (stereo partly drawn) [(4aS,6aS,6bR,12aR)-2,2,6a,6b,9,9,12a-Heptamethyl-10-oxo-1,3,4,5,6,6a,6b,7,8,8a,9,10,12a,12b,13,14b-hexadecahydro-2H-picene-4a-carboxylic acid]"
5,3.3 µM,"CC1(C)CC[C@]2(C(=O)O)CC[C@]3(C)C(C(=O)CC4[C@@]5(C)C=CC(=O)C(C)(C)C5CC[C@]43C)C2C1 (stereo partly drawn) [(4aS,6aR,6bR,12aR)-2,2,6a,6b,9,9,12a-Heptamethyl-10,14-dioxo-1,3,4,5,6,6a,6b,7,8,8a,9,10,12a,12b,13,14,14a,14b-octadecahydro-2H-picene-4a-carboxylic acid]"
6,> 40 µM,CC1(C)CC[C@]2(C(=O)O)CC[C@]3(C)C(=CC[C@@H]4[C@@]5(C)CC[C@H](O)C(C)(C)[C@@H]5CC[C@]43C)[C@@H]2C1 [Oleanolic acid (OA)(Compound 1)]
